Assay results taken from patent US20200371122A1, “BIOMARKER FOR SENESCENT CELLS” (Buck Institute for Research on Aging, priority 2017, published 2020).

Tests used:
Assay type in all cases: in vivo, mouse
[1] = system: C57BL6/J and p16-3MR mice injured with bleomycin; assay: Bleomycin-induced pulmonary fibrosis in mice
Procedure: RNA was extracted from cells or tissues using commercially available kits (Isolate II—Bioline for cells; Direct-zol—Zymo for tissues) according to the manufacturer's instructions. cDNA synthesis was performed using a High Capacity cDNA Reverse Transcription Kit (Thermo Fisher) according to the manufacturer's instructions. Quantitative PCR was performed on a LightCycler 480 II (Roche) using primers and probes designed for the Universal Probe Library. Primers and probes used for human transcripts were ACTB: 5′-CCAACCGCGAGAAGATGA (SEQ ID NO:1), 5′-TCCATCACGATGCCAGTG (SEQ ID NO:2), Probe #64; TUBA: 5′-cttcgtctccgccatcag (SEQ ID NO:3), 5′-ttgccaatctggacacca (SEQ ID NO:4), Probe #58; ALOX5: 5′-[…] (SEQ ID NO:5), 5′-[…] (SEQ ID NO:6), Probe #64; ALOX5AP: 5′-ggtctgcggggctacttt (SEQ ID NO:7), 5′-[…] (SEQ ID NO:8), Probe #18; ALOX12: 5′-[…] (SEQ ID NO:9), 5′-agccaggtcgtcaggag (SEQ ID NO:10), Probe #32; ALOX15: 5′-[…] (SEQ ID NO:11), 5′-[…] (SEQ ID NO:12), Probe #76; ALOX15B: 5′-[…] (SEQ ID NO:13), 5′-actgggaggcgaagaagg (SEQ ID NO:14), Probe #51; AKR1C1: 5′-catgcctgtcctgggattt (SEQ ID NO:15), 5′-[…] (SEQ ID NO:16), Probe #49; AKR1C2: 5′-ctatgcgcctgcagaggt (SEQ ID NO:17), 5′-[…] (SEQ ID NO:18), Probe #31; AKR1C3: 5′-[…] (SEQ ID NO:19), 5′-[…] (SEQ ID NO:20), Probe #78; CYSLTR2: 5′-[…] (SEQ ID NO:21), 5′-[…] (SEQ ID NO:22), Probe #18; DPEP1: 5′-gacgtcctgaggctggtg (SEQ ID NO:23), 5′-[…] (SEQ ID NO:24), Probe #9 (SEQ ID NO:25), ELOVL2: 5′-[…] (SEQ ID NO:26), 5′-[…] (SEQ ID NO:27), Probe #53; ELOVL4: 5′-catttggcccatggattc (SEQ ID NO:28), 5′-[…] (SEQ ID NO:29), Probe #31; ELOVL5: 5′-cccttccatgcgtccata (SEQ ID NO:30), 5′-[…] (SEQ ID NO:31), Probe #31; EPHX2: 5′-ttctgctggacaccctgaa (SEQ ID NO:32), 5′-[…] (SEQ ID NO:33), Probe #45; GPX4: 5′-ttcccgtgtaaccagttcg (SEQ ID NO:34), 5′-[…] (SEQ ID NO:35), Probe #36; LTA4H: 5′-ctgctctcacggtccagtc (SEQ ID NO:36), 5′-[…] (SEQ ID NO:37), Probe #64; LTBR2: 5′-[…] (SEQ ID NO:38), 5′-[…] (SEQ ID NO:39), Probe #33; LTC4S: 5′-[…] (SEQ ID NO:40), 5′-[…] (SEQ ID NO:41), Probe #18; PTGDS: 5′-[…] (SEQ ID NO:42), 5′-[…] (SEQ ID NO:43), Probe #36; PTGES: 5′-agagatgcctgcccacag (SEQ ID NO:44), 5′-tggccaccacgtacatctt (SEQ ID NO:45), Probe #4; PTGES2: 5′-[…] (SEQ ID NO:46), 5′-[…] (SEQ ID NO:47), Probe #49; PTGES3 (SEQ ID NO:48), 5′-[…] (SEQ ID NO:49), 5′-[…] (SEQ ID NO:50), Probe #48; PTGIS: 5′-[…] (SEQ ID NO:51), 5′-[…] (SEQ ID NO:52), Probe #45; PTGR1: 5′-atgatggggcagcaagtg (SEQ ID NO:53), 5′-cccatcagaaatggagtgc (SEQ ID NO:54), Probe #64; PTGS1: 5′-[…] (SEQ ID NO:55), 5′-gtggtggtccatgttcctg (SEQ ID NO:56), Probe #81; PTGS2: 5′-gatccccagggctcaaac (SEQ ID NO:57), 5′-[…] (SEQ ID NO:58), Probe #61; TBXAS1: 5′-[…] (SEQ ID NO:59), 5′-tgcctcccgtgtgaatct (SEQ ID NO:60), Probe #73; AREG: 5′-[…] (SEQ ID NO:61), 5′-[…] (SEQ ID NO:62), Probe #73; CCL2: 5′-AGTCTCTGCCGCCCTTCT (SEQ ID NO:63), 5′-GTGACTGGGGCATTGATTG (SEQ ID NO:64), Probe #40; CCL27: 5′-[…] (SEQ ID NO:65), 5′-gctgggtggcagtaggaat (SEQ ID NO:66), Probe #18; CXCL1: 5′-[…] (SEQ ID NO:67), 5′-[…] (SEQ ID NO:68), Probe #52; HGF: 5′-[…] (SEQ ID NO:69), 5′-[…] (SEQ ID NO:70), Probe #49; ILIA: 5′-[…] (SEQ ID NO:71), 5′-[…] (SEQ ID NO:72), Probe #6; IL1B: 5′-[…] (SEQ ID NO:73), 5′-[…] (SEQ ID NO:74), Probe #78; IL6: 5′-[…] (SEQ ID NO:75), 5′-gaaggcagcaggcaacac (SEQ ID NO:76), Probe #45; IL8: 5′-[…] (SEQ ID NO:77), 5′-atggttccttccggtggt (SEQ ID NO:78), Probe #72; IL10: 5′-[…] (SEQ ID NO:79), 5′-[…] (SEQ ID NO:80), Probe #67; MMP3: 5′-[…] (SEQ ID NO:81), 5′-[…] (SEQ ID NO:82), Probe #36; PDGFA: 5′-[…] (SEQ ID NO:83), 5′-[…] […]

p16-positive cells = assay: Eicosanoid synthase gene expression in livers of doxorubicin-treated or aged p16-3MR mice; settings: liver
Procedure: RNA was extracted from cells or tissues using commercially available kits (Isolate II—Bioline for cells; Direct-zol—Zymo for tissues) according to the manufacturer's instructions. cDNA synthesis was performed using a High Capacity cDNA Reverse Transcription Kit (Thermo Fisher) according to the manufacturer's instructions. Quantitative PCR was performed on a LightCycler 480 II (Roche) using primers and probes designed for the Universal Probe Library. Primers and probes used for human transcripts were ACTB: 5′-CCAACCGCGAGAAGATGA (SEQ ID NO:1), 5′-TCCATCACGATGCCAGTG (SEQ ID NO:2), Probe #64; TUBA: 5′-cttcgtctccgccatcag (SEQ ID NO:3), 5′-ttgccaatctggacacca (SEQ ID NO:4), Probe #58; ALOX5: 5′-[…] (SEQ ID NO:5), 5′-[…] (SEQ ID NO:6), Probe #64; ALOX5AP: 5′-ggtctgcggggctacttt (SEQ ID NO:7), 5′-[…] (SEQ ID NO:8), Probe #18; ALOX12: 5′-[…] (SEQ ID NO:9), 5′-agccaggtcgtcaggag (SEQ ID NO:10), Probe #32; ALOX15: 5′-[…] (SEQ ID NO:11), 5′-[…] (SEQ ID NO:12), Probe #76; ALOX15B: 5′-[…] (SEQ ID NO:13), 5′-actgggaggcgaagaagg (SEQ ID NO:14), Probe #51; AKR1C1: 5′-catgcctgtcctgggattt (SEQ ID NO:15), 5′-[…] (SEQ ID NO:16), Probe #49; AKR1C2: 5′-ctatgcgcctgcagaggt (SEQ ID NO:17), 5′-[…] (SEQ ID NO:18), Probe #31; AKR1C3: 5′-[…] (SEQ ID NO:19), 5′-[…] (SEQ ID NO:20), Probe #78; CYSLTR2: 5′-[…] (SEQ ID NO:21), 5′-[…] (SEQ ID NO:22), Probe #18; DPEP1: 5′-gacgtcctgaggctggtg (SEQ ID NO:23), 5′-[…] […]

[2] = system: C57BL6/J and p16-3MR mice injured with bleomycin; assay: Bleomycin-induced pulmonary fibrosis in mice; remark: listed apart in the source
[3] = bleomycin-treated animals, day 14, ELISA

Question: `Nc1nc(O)c2ncn(COC(CO)CO)c2n1` [GCV, ganciclovir] was tested. Which “RNA levels of p16INK4a and p21WAF1 in lungs” value ([1]; 14 days after bleomycin injury) did it give?
Answer: Its value is “significantly attenuated”.

Question: And the “collagen expression (Col3a1 and Col4a1)” value ([1]; bleomycin-injured mice, 21 days after injury as printed)?
Answer: Its value is “reduced”.

Question: What about the eicosanoid synthase expression (p16-positive cells; doxorubicin-treated p16-3MR mice, day 10) of the same compound?
Answer: The eicosanoid synthase expression was “reduced”.

Question: And the eicosanoid synthase expression (p16-positive cells; p16-3MR mice aged 21 months)?
Answer: The eicosanoid synthase expression was “not statistically significant”.

Question: What about the “collagen content (hydroxyproline)” value ([2]; 21 days after injury) of the same compound?
Answer: Its value is “reduced”.

Question: What about the “cysteinyl leukotrienes in bronchioalveolar lavage fluid (BALF)” value [2, 3] of the same compound?
Answer: Its value is “reduced”.

Question: And the “prostaglandin E2 in bronchioalveolar lavage fluid (BALF)” value [2, 3]?
Answer: The value was “reduced”.
